According to ChEMBL document CHEMBL1128156, “Potent dual antagonists of endothelin and angiotensin II receptors derived from -phenoxyphenylacetic acids (Part III)” (Bioorg Med Chem Lett, 1995):

Legend:
Endothelin-1 receptor = target: T1, Endothelin-1 receptor (Homo sapiens, UniProt P25101); test: Inhibition of human endothelin A (ETA) receptor expressed in CHO cells; format: cell-based
T1 sequence (P25101 whole entry): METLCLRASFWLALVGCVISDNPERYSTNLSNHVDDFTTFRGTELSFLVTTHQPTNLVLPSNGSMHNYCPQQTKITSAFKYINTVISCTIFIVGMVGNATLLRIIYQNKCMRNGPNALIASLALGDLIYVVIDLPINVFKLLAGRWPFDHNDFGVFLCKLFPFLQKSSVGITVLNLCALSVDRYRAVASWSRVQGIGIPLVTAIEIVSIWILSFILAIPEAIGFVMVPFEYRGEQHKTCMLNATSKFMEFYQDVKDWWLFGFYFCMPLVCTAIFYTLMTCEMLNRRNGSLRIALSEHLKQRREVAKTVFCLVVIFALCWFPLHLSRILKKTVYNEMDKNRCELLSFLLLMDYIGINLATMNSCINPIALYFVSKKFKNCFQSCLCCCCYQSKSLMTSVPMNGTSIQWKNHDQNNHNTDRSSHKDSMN

[1] = target: T2, Endothelin receptor type B (Homo sapiens, UniProt P24530); test: Inhibition of human endothelin B (ETB) receptor expressed in CHO cells; format: cell-based
T2 sequence (P24530 whole entry): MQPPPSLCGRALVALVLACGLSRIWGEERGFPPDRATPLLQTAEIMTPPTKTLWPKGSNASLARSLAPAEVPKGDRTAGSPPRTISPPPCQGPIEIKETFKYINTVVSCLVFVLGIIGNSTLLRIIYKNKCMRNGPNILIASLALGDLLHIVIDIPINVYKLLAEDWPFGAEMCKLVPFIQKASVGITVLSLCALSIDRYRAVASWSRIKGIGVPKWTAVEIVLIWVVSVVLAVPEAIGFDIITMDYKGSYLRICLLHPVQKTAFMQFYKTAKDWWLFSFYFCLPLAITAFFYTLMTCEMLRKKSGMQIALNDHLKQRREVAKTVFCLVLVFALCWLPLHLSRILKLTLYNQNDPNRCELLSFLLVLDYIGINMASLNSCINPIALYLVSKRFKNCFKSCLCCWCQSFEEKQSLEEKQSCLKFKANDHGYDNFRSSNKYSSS

## CCCc1cc(Cn2c(CC)nc3c(C)cc(C)nc32)ccc1OC(C(=O)NS(=O)(=O)c1ccc(C(C)C)cc1)c1ccc2c(c1)OCO2 (centres undefined)
Endothelin-1 receptor
  IC50: 24 nM
[1]
  IC50: 60 nM

## CCCc1cc(Cn2c(CC)nc3c(C)cc(C)nc32)ccc1OC(C(=O)O)c1ccccc1 (centres undefined)
Endothelin-1 receptor
  IC50: 11000 nM
[1]
  IC50: 47000 nM

## CCCc1cc(Cn2c(CC)nc3c(C)cc(C)nc32)cc(CCC)c1OC(C(=O)NS(C)(=O)=O)c1ccc2c(c1)OCO2 (centres undefined)
Endothelin-1 receptor
  IC50: 500 nM
[1]
  IC50: 1200 nM

## CCCc1cc(Cn2c(CC)nc3c(C)cc(C)nc32)cc(CCC)c1OC(C(=O)O)c1ccc2c(c1)OCO2 (centres undefined)
Endothelin-1 receptor
  IC50: 38 nM
[1]
  IC50: 230 nM

## CCCc1cc(Cn2c(CC)nc3c(C)cc(C)nc32)cc(CCC)c1OC(C(=O)NS(=O)(=O)c1cccs1)c1ccc2c(c1)OCO2 (centres undefined)
Endothelin-1 receptor
  IC50: 820 nM
[1]
  IC50: 540 nM

## CCCc1cc(Cn2c(CC)nc3c(C)cc(C)nc32)cc(CCC)c1OC(C(=O)NS(=O)(=O)c1ccccc1)c1ccc2c(c1)OCO2 (centres undefined)
Endothelin-1 receptor
  IC50: 1600 nM
[1]
  IC50: 800 nM

## CCCc1cc(Cn2c(CC)nc3c(C)cc(C)nc32)ccc1OC(C(=O)O)c1ccc2c(c1)OCO2 (centres undefined)
Endothelin-1 receptor
  IC50: 840 nM
[1]
  IC50: 1600 nM

## CCCc1cc(Cn2c(CC)nc3c(C)cc(C)nc32)cc(CCC)c1OC(C(=O)NS(=O)(=O)c1ccc(C(C)C)cc1)c1ccc2c(c1)OCO2 (centres undefined)
Endothelin-1 receptor
  IC50: 330 nM
[1]
  IC50: 1300 nM

## CCCc1cc(Cn2c(CC)nc3c(C)cc(C)nc32)ccc1OC(C(=O)NS(=O)(=O)c1ccc(CC(C)C)s1)c1ccc2c(c1)OCO2 (centres undefined)
Endothelin-1 receptor
  IC50: 75 nM
[1]
  IC50: 90 nM

## CCCc1cc(Cn2c(CC)nc3c(C)cc(C)nc32)cc(CCC)c1OC(C(=O)O)c1cc(Br)c(OC)c(OC)c1Br (centres undefined)
Endothelin-1 receptor
  IC50: 11000 nM
[1]
  IC50: 31000 nM

## CCCc1cc(Cn2c(CC)nc3c(C)cc(C)nc32)cc(CCC)c1OC(C(=O)NS(=O)(=O)c1ccc(CC(C)C)s1)c1ccc2c(c1)OCO2 (centres undefined)
Endothelin-1 receptor
  IC50: 600 nM
[1]
  IC50: 420 nM

## CCCc1cc(Cn2c(CC)nc3c(C)cc(C)nc32)cc(CCC)c1OC(C(=O)NS(=O)(=O)C(C)C)c1ccc2c(c1)OCO2 (centres undefined)
Endothelin-1 receptor
  IC50: 700 nM
[1]
  IC50: 1900 nM
